{"source": "PubChem BioAssay (NCI)", "note": "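How tested: cells in 96-well plates exposed to compound for 48 hours at five concentrations. Here, GI50 denotes the concentration required for 50% inhibition of growth. TGI marks complete inhibition of growth.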", "data": [{"test_system": "MDA-MB-468 breast", "assay": "NCI tumour cell line growth inhibition, 48 h", "units": {"GI50": "µM", "TGI": "µM"}, "values": [{"smiles": "COc1ccc(-c2nc(-c3nc4ccc(Cl)cc4[nH]3)c3ccccn23)cc1", "GI50": 1.99, "TGI": 6.76}, {"smiles": "Nc1nc2c(nnn2C2CC(O)C(CO)O2)c(=O)[nH]1", "note": "(centres undefined)", "GI50": 0.825, "TGI": 7.2}, {"smiles": "COc1ccc2c(c1)CCCN2c1c2ccccc2nc2ccccc12", "GI50": 0.386, "TGI": "> 100"}, {"smiles": "C#C[C@]1(O)CC[C@H]2[C@@H]3CC=C4c5sc(Nc6ncccc6C)nc5CC[C@]4(C)[C@H]3CC[C@@]21C", "GI50": 1.25, "TGI": 3.23}, {"smiles": "O=C1Nc2ccccc2C1(c1ccc(O)cc1)c1ccc(O)cc1", "GI50": 0.227, "TGI": 14.1}, {"smiles": "CCN(CC)CCCC(C)Nc1c2ccc(Cl)cc2nc2ccc(O)cc12", "note": "(centres undefined)", "GI50": 1.31, "TGI": 2.91}, {"smiles": "Nc1nc(N(Cc2ccccc2)c2ccccc2)c2cn[nH]c2n1", "GI50": 1.96, "TGI": 6.33}, {"smiles": "COc1cc2ncn(-c3cc(OCc4cccs4)c(C(N)=O)s3)c2cc1OC", "GI50": 0.654, "TGI": 6.41}, {"smiles": "Cc1ccc(C(=O)N(CCCN)C(c2oc3cc(Cl)ccc3c(=O)c2Cc2ccccc2)C(C)C)cc1", "note": "(centres undefined)", "GI50": "< 0.01", "TGI": 0.904}, {"smiles": "Nc1nccc(-c2c(-c3ccc(F)cc3)ncn2C2CCC(O)CC2)n1", "note": "(centres undefined)", "GI50": 0.822, "TGI": 6.36}, {"smiles": "CCCn1c(=S)sc2c1nc(C)n1c(Nc3ccccc3)nnc21", "GI50": 2.03, "TGI": 13}, {"smiles": "COc1ccc(-c2cnc(NC(=O)CCCCCCNC(=O)C(O)(O)C(F)(F)F)s2)cc1", "GI50": 0.877, "TGI": 5.56}, {"smiles": "CCCCCCCCn1ccc2cc(NC(=O)Cn3cc(CN4CCCC4)nn3)ccc21", "GI50": 1.63, "TGI": 3.17}, {"smiles": "CN(C)CCCOc1ccc(C(=C(c2ccccc2)C2CCCC2)c2ccc(OCCCN(C)C)cc2)cc1", "GI50": 1.71, "TGI": 3.97}, {"smiles": "CCCC(=O)OCC1OC(n2cnc3c(=S)nc[nH]c32)C(OC(=O)CCC)C1OC(=O)CCC", "note": "(centres undefined)", "GI50": 0.802, "TGI": 45}, {"smiles": "CS(=O)(=O)CCNCc1ccc(-c2ccc3ncnc(Nc4ccc(OCc5ccccc5)cc4)c3c2)o1", "GI50": 0.146, "TGI": 1.62}, {"smiles": "C#CCNC(=O)c1cccc2c1cc(C)n2-c1nc2c(c(NCc3ccccc3)n1)CCCC2", "GI50": 0.0213, "TGI": 0.0546}, {"smiles": "O=C(O)/C=C(\\c1nc2ccc([N+](=O)[O-])cc2[nH]1)c1cc(Cl)ccc1O", "GI50": 2.09, "TGI": 9.96}, {"smiles": "COC(=O)Nc1nc2ccc(Oc3ccc(NC(=O)Nc4cc(C(F)(F)F)ccc4F)cc3)cc2s1", "GI50": 9.11, "TGI": "> 25"}, {"smiles": "CNC(=O)c1cc(-c2ccc(NC(=O)Nc3ccc(N4CCN(C)CC4)c(C(F)(F)F)c3)cc2)nc2cccnc12", "GI50": 14.8, "TGI": 32.9}, {"smiles": "O=C(O)CCNC1CCCCC1", "GI50": "> 100", "TGI": "> 100"}, {"smiles": "C=C(C[C@](O)(C(=O)/C=C/c1ccc(Cl)cc1)C(=O)OC)c1ccccc1", "GI50": 3.76, "TGI": 13.7}, {"smiles": "CC1(C)OC2=C(CC1Br)C(=O)C(=O)c1ccccc12", "note": "(centres undefined)", "GI50": 1.45, "TGI": 2.82}, {"smiles": "CC(C)(O)c1cncc(-c2ccc3ncnc(N4CCc5cc(F)c(Cl)cc54)c3c2)c1", "GI50": 0.567, "TGI": 3.5}, {"smiles": "CC/C=C\\C[C@H](F)C/C=C1/C(=O)C=C[C@@H]1C/C=C\\CCCC(=O)O", "GI50": 3.85, "TGI": 11.5}, {"smiles": "Cc1cc(-c2cnn3c(NCC4CC(C)(O)C4)cc(Oc4cccnc4)nc23)ccc1C(=O)NC1CC1", "note": "(centres undefined)", "GI50": 2.08, "TGI": "> 100"}, {"smiles": "CCCCCCCC[C@@H](O)CC(=O)N[C@@H](CC(N)=O)C(=O)N[C@@H](CCC(N)=O)C(=O)N[C@@H](CC(=O)c1cc(C)cc(O)c1C(=O)c1c(O)cccc1O)CC(C)C", "GI50": 0.401, "TGI": 3.14}, {"smiles": "COc1cc2cc(Oc3ccc(NC(=O)Nc4ccc(Cl)c(C(F)(F)F)c4)cc3)c(C)nc2cc1OCCN1CCOCC1", "GI50": 0.474, "TGI": 2.06}, {"smiles": "NC(=O)NS(=O)(=O)c1ccc(N2N=C(C(F)(F)F)CC2c2cc(C(F)(F)F)cc(C(F)(F)F)c2)cc1", "note": "(centres undefined)", "GI50": 2.7, "TGI": 10.9}, {"smiles": "COc1cc[nH]c1/C=C1\\C(=O)Nc2ccc(F)c(C#CC3(O)CCNCC3)c21", "GI50": 0.123, "TGI": 0.6}, {"smiles": "CC/C=C\\C[C@@H](O)C/C=C1/C(=O)C=C[C@H]1C/C=C\\CCCC(=O)OC", "GI50": 2.12, "TGI": 4.79}, {"smiles": "CCOCC(=O)N[C@H]1CCc2cc(OC)c(OC)c(OC)c2-c2ccc(OC)c(=O)cc21", "GI50": "< 0.01", "TGI": "> 100"}, {"smiles": "Cc1ccc(C(=O)NC(C)C)cc1-c1ccc(C(=O)NCC2CC2)cc1", "GI50": "> 25", "TGI": "> 25"}, {"smiles": "O=C(Nc1ccc(-c2nc(N3CCOCC3)c3cccn3n2)cc1)Nc1cccnc1", "GI50": 0.0692, "TGI": 0.57}, {"smiles": "COc1ccc(CNS(=O)(=O)/N=C2\\NC(=O)NC2=C(Cl)Cl)cc1", "GI50": 0.18, "TGI": 0.65}, {"smiles": "Cc1ccc2c(c1)Sc1c(ccc3ccccc13)N2", "GI50": 56.2, "TGI": "> 100"}, {"smiles": "Cc1ccc(-c2nc3nc(-c4ccccc4)nc(N4CCCNCC4)c3o2)cc1", "GI50": 1.59, "TGI": 3.35}, {"smiles": "C[N+]1=C(/C=C/c2ccc(O)c3ncccc23)C(C)(C)c2ccccc21", "GI50": 3.05, "TGI": 10.6}, {"smiles": "COc1ccc(-c2onc(N)c2-c2cc(OC)c3c(c2)OCO3)cc1", "GI50": 0.644, "TGI": 3.15}, {"smiles": "O=C(Nc1ccncc1)C(=O)c1cn(S(=O)(=O)c2cccc(F)c2)c2ccccc12", "GI50": 1.26, "TGI": 8.38}, {"smiles": "O=C1C(Cl)=C(NCCN2CCOCC2)C(=O)c2ncccc21", "GI50": 1.41, "TGI": 2.91}, {"smiles": "O=C(CCc1nnc2sc(-c3ccc(Cl)cc3Cl)nn12)c1nc2ccccc2[nH]1", "GI50": 0.466, "TGI": 1.49}]}]}
